Results from patent US10392391B2 (Vertex Pharmaceuticals Incorporated, priority 2012, dated 2019).

The molecules below were run against ATR kinase (full-length ATR) (Homo sapiens (Human), UniProt Q13535) (assay: ATR inhibition assay (radioactive-phosphate incorporation)). Details: not given.
Format: biochemical
How it was run: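 Radiometric 33P incorporation by 5 nM full-length ATR into 800 μM target peptide with 10 μM [γ-33P]ATP, in 50 mM Tris/HCl pH 7.5, 10 mM MgCl2, 1 mM DTT, 7% DMSO, 25° C. Compound pre-incubated 10 minutes; reaction stopped after 24 hours, captured on phosphocellulose. Ki(app) from non-linear regression of initial rates.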

Chain of ATR kinase (full-length ATR) (Q13535 whole entry): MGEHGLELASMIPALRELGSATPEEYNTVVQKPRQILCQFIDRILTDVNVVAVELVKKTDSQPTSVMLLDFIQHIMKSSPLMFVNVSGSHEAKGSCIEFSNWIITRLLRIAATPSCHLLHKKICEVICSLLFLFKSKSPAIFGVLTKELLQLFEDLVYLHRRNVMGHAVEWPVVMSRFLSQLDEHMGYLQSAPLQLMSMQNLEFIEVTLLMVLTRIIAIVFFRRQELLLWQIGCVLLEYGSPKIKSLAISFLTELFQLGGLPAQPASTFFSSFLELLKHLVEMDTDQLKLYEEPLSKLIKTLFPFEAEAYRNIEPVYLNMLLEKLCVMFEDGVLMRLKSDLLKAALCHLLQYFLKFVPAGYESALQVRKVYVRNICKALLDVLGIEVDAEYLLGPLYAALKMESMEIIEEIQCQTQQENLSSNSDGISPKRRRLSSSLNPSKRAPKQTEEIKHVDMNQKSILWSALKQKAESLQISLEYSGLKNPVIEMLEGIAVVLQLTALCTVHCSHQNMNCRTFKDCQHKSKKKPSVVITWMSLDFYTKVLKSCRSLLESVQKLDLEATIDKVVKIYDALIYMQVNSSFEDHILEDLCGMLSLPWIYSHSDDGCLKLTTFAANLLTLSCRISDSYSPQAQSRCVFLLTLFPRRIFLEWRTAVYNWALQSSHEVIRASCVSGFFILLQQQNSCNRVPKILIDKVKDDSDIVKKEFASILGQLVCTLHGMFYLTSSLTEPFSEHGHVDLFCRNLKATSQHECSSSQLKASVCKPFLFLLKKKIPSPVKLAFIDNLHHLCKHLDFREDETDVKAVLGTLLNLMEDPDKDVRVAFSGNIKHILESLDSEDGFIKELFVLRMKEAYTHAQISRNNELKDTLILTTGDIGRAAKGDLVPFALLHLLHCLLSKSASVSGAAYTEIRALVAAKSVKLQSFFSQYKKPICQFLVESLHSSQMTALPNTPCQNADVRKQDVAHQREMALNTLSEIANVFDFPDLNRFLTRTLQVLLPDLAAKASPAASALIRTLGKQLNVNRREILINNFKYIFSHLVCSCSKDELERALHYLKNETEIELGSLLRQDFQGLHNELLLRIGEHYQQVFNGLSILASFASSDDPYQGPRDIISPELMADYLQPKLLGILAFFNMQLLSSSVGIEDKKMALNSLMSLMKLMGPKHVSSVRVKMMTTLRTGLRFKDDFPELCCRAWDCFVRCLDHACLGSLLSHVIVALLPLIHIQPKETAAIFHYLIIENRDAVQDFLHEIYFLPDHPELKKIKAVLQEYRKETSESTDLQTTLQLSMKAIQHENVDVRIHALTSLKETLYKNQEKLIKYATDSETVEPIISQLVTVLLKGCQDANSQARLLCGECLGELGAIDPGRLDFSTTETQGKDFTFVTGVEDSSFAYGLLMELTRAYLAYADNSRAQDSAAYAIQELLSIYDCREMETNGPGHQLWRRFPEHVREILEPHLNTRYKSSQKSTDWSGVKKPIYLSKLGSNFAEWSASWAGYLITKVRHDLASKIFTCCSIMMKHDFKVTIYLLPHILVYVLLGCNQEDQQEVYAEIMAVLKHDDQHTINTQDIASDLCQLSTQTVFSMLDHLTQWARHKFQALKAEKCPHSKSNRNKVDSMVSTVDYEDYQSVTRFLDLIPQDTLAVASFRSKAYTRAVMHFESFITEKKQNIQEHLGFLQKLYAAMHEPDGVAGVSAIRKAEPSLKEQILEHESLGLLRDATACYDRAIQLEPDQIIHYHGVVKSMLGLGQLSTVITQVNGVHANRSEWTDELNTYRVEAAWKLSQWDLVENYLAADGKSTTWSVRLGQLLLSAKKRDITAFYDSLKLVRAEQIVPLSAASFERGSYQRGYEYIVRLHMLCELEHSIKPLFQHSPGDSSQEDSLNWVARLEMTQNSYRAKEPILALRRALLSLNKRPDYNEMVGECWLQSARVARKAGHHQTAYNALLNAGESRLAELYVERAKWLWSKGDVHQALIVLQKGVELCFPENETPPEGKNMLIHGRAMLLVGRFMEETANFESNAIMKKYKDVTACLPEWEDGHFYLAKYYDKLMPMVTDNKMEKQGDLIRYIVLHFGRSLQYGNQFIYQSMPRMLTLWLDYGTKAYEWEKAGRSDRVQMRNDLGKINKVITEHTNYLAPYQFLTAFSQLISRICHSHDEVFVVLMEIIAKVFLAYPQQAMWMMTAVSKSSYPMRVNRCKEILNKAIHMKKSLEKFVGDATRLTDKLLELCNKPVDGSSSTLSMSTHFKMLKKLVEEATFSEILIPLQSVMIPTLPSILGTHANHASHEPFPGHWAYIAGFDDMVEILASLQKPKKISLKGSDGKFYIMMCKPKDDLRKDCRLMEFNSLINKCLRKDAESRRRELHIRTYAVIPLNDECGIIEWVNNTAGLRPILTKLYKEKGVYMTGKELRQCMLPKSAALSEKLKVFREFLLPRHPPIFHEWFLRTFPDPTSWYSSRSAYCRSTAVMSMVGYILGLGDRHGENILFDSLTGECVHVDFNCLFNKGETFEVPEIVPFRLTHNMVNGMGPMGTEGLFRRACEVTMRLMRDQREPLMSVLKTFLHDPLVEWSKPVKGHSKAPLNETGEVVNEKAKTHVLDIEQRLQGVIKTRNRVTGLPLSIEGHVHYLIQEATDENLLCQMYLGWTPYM

`CN1CCN(c2c(F)cncc2NC(=O)c2c(N)nn3cc(C(C)(C)C#N)cnc23)CC1` [I-N-138, 2-amino-6-(2-cyanopropan-2-yl)-N-(5-fluoro-4-(4-methylpiperazin-1-yl)pyridin-3-yl)pyrazolo[1,5-a]pyrimidine-3-carboxamide] and `CN1CCC(c2ccncc2NC(=O)c2c(N)nn3cc(C(C)(C)C#N)cnc23)CC1` [I-C-23, 2-amino-6-(2-cyanopropan-2-yl)-N-(4-(1-methylpiperidin-4-yl)pyridin-3-yl)pyrazolo[1,5-a]pyrimidine-3-carboxamide] fall in the same range of Ki: 1000 to 5000 nM for the first, 1000 to 5000 nM for the second.

`CN(C)C1CCN(c2ccncc2NC(=O)c2c(N)nn3cc(Cl)cnc23)CC1` [I-N-37, 2-amino-6-chloro-N-(4-(4-(dimethylamino)piperidin-1-yl)pyridin-3-yl)pyrazolo[1,5-a]pyrimidine-3-carboxamide] and `Cc1ccncc1NC(=O)c1c(N)nn2cc(Cl)cnc12` [I-C-2, 2-amino-6-chloro-N-(4-methylpyridin-3-yl)pyrazolo[1,5-a]pyrimidine-3-carboxamide] fall in the same range of Ki: 1000 to 5000 nM for the first, 1000 to 5000 nM for the second.

`CN1CCN(c2cc(Cl)ncc2NC(=O)c2c(N)nn3cc(Cl)cnc23)CC1` [I-N-52, 2-amino-6-chloro-N-(6-chloro-4-(4-methylpiperazin-1-yl)pyridin-3-yl)pyrazolo[1,5-a]pyrimidine-3-carboxamide] and `Nc1nn2cc(F)cnc2c1C(=O)Nc1cncc(F)c1N1CCC(C(=O)N2CCN3CCC2C3)CC1` (stereo not shown) [I-G-46, N-(4-(4-(1,4-diazabicyclo[3.2.1]octane-4-carbonyl)piperidin-1-yl)-5-fluoropyridin-3-yl)-2-amino-6-fluoropyrazolo[1,5-a]pyrimidine-3-carboxamide] fall in the same range of Ki: 1000 to 5000 nM for the first, 1000 to 5000 nM for the second.

Same assay, conditions: Ki(app), 5 nM full-length ATR, 10 μM ATP, 25° C.

`Nc1nn2cc(F)cnc2c1C(=O)Nc1cnccc1OC1CN2CCC1CC2` (racemic) [I-O-6, (R,S)-2-amino-6-fluoro-N-(4-(quinuclidin-3-yloxy)pyridin-3-yl)pyrazolo[1,5-a]pyrimidine-3-carboxamide] and `CCOc1ccncc1NC(=O)c1c(N)nn2cc(F)cnc12` [I-O-14, 2-amino-N-(4-ethoxypyridin-3-yl)-6-fluoropyrazolo[1,5-a]pyrimidine-3-carboxamide] fall in the same range of Ki: 10 to 1000 nM for the first, 10 to 1000 nM for the second.

`Nc1nn2cc(F)cnc2c1C(=O)Nc1cnccc1-c1ccc(S(=O)(=O)N2CCC2)cc1` [I-C-64, 2-amino-N-(4-(4-(azetidin-1-ylsulfonyl)phenyl)pyridin-3-yl)-6-fluoropyrazolo[1,5-a]pyrimidine-3-carboxamide] and `Nc1nn2cc(F)cnc2c1C(=O)Nc1cnccc1N1CCC(S(=O)(=O)N2CCC2)CC1` [I-N-271, 2-amino-N-(4-(4-(azetidin-1-ylsulfonyl)piperidin-1-yl)pyridin-3-yl)-6-fluoropyrazolo[1,5-a]pyrimidine-3-carboxamide] fall in the same range of Ki: 10 to 1000 nM for the first, 10 to 1000 nM for the second.

`CS(=O)(=O)C1CCN(c2c(F)cncc2NC(=O)c2c(N)nn3cc(F)cnc23)CC1` [I-N-165, 2-amino-6-fluoro-N-(5-fluoro-4-(4-(methylsulfonyl)piperidin-1-yl)pyridin-3-yl)pyrazolo[1,5-a]pyrimidine-3-carboxamide] and `Nc1nn2cc(F)cnc2c1C(=O)Nc1cncc(F)c1N1CCN(S(=O)(=O)C2CC2)CC1` [I-N-159, 2-amino-N-(4-(4-(cyclopropylsulfonyl)piperazin-1-yl)-5-fluoropyridin-3-yl)-6-fluoropyrazolo[1,5-a]pyrimidine-3-carboxamide] fall in the same range of Ki: 10 to 1000 nM for the first, 10 to 1000 nM for the second.

`CN1CCN(C(=O)C2CCN(c3c(F)cncc3NC(=O)c3c(N)nn4cc(Cl)cnc34)CC2)CC1` [I-G-5, 2-amino-6-chloro-N-(5-fluoro-4-(4-(4-methylpiperazine-1-carbonyl)piperidin-1-yl)pyridin-3-yl)pyrazolo[1,5-a]pyrimidine-3-carboxamide] and `Nc1nn2cc(F)cnc2c1C(=O)Nc1cncc(F)c1N1CCN(C(=O)C2CCN(C3COC3)CC2)CC1` [I-N-211, 2-amino-6-fluoro-N-(5-fluoro-4-(4-(1-(oxetan-3-yl)piperidine-4-carbonyl)piperazin-1-yl)pyridin-3-yl)pyrazolo[1,5-a]pyrimidine-3-carboxamide] fall in the same range of Ki: 10 to 1000 nM for the first, 10 to 1000 nM for the second.

`CCOc1ccncc1NC(=O)c1c(N)nn2cc(CC#N)cnc12` [I-O-28, 2-amino-6-(cyanomethyl)-N-(4-ethoxypyridin-3-yl)pyrazolo[1,5-a]pyrimidine-3-carboxamide] and `N#CCc1cnc2c(C(=O)Nc3cnccc3OC3CCCC3)c(N)nn2c1` [I-O-43, 2-amino-6-(cyanomethyl)-N-(4-(cyclopentyloxy)pyridin-3-yl)pyrazolo[1,5-a]pyrimidine-3-carboxamide] cannot be ordered by Ki: < 10 nM for the first, < 10 nM for the second.

`CC(C)(C)NC(=O)C1CCN(c2c(F)cncc2NC(=O)c2c(N)nn3cc(F)cnc23)CC1` [I-G-19, 2-amino-N-(4-(4-(tert-butylcarbamoyl)piperidin-1-yl)-5-fluoropyridin-3-yl)-6-fluoropyrazolo[1,5-a]pyrimidine-3-carboxamide] and `CN1CCC(NC(=O)C2CCN(c3c(F)cncc3NC(=O)c3c(N)nn4cc(F)cnc34)CC2)CC1` [I-G-20, 2-amino-6-fluoro-N-(5-fluoro-4-(4-((1-methylpiperidin-4-yl)carbamoyl)piperidin-1-yl)pyridin-3-yl)pyrazolo[1,5-a]pyrimidine-3-carboxamide] fall in the same range of Ki: 10 to 1000 nM for the first, 10 to 1000 nM for the second.

`COc1cncc(NC(=O)c2c(N)nn3cc(F)cnc23)c1C1CC1` [I-C-84, 2-amino-N-(4-cyclopropyl-5-methoxypyridin-3-yl)-6-fluoropyrazolo[1,5-a]pyrimidine-3-carboxamide] and `Cc1ncn(-c2ccncc2NC(=O)c2c(N)nn3cc(F)cnc23)n1` [I-N-161, 2-amino-6-fluoro-N-(4-(3-methyl-1H-1,2,4-triazol-1-yl)pyridin-3-yl)pyrazolo[1,5-a]pyrimidine-3-carboxamide] fall in the same range of Ki: 10 to 1000 nM for the first, 10 to 1000 nM for the second.

First: CN1CCC(Oc2ccncc2NC(=O)c2c(N)nn3cc(CC#N)cnc23)CC1 [I-O-23, 2-amino-6-(cyanomethyl)-N-(4-((1-methylpiperidin-4-yl)oxy)pyridin-3-yl)pyrazolo[1,5-a]pyrimidine-3-carboxamide]
Second: N#CCc1cnc2c(C(=O)Nc3cnccc3N3CCC(O)CC3)c(N)nn2c1 [I-N-83, 2-amino-6-(cyanomethyl)-N-(4-(4-hydroxypiperidin-1-yl)pyridin-3-yl)pyrazolo[1,5-a]pyrimidine-3-carboxamide]
The Ki of the first is higher: 10 to 1000 nM for the first, < 10 nM for the second.

`N#CC1CN(C(=O)C2CCN(c3c(F)cncc3NC(=O)c3c(N)nn4cc(F)cnc34)CC2)C1` [I-G-76, 2-amino-N-(4-(4-(3-cyanoazetidine-1-carbonyl)piperidin-1-yl)-5-fluoropyridin-3-yl)-6-fluoropyrazolo[1,5-a]pyrimidine-3-carboxamide] and `Nc1nn2cc(F)cnc2c1C(=O)Nc1cncc(F)c1N1CCN(C(=O)C2CNC2)CC1` [I-N-168, 2-amino-N-(4-(4-(azetidine-3-carbonyl)piperazin-1-yl)-5-fluoropyridin-3-yl)-6-fluoropyrazolo[1,5-a]pyrimidine-3-carboxamide] fall in the same range of Ki: 10 to 1000 nM for the first, 10 to 1000 nM for the second.

`CCOC1CN(C(=O)C2CCN(c3ccncc3NC(=O)c3c(N)nn4cc(F)cnc34)CC2)C1` [I-G-91, 2-amino-N-(4-(4-(3-ethoxyazetidine-1-carbonyl)piperidin-1-yl)pyridin-3-yl)-6-fluoropyrazolo[1,5-a]pyrimidine-3-carboxamide] and `CN1CCC(OC2CCN(c3ccncc3NC(=O)c3c(N)nn4cc(F)cnc34)CC2)CC1` [I-N-154, 2-amino-6-fluoro-N-(4-(4-((1-methylpiperidin-4-yl)oxy)piperidin-1-yl)pyridin-3-yl)pyrazolo[1,5-a]pyrimidine-3-carboxamide] fall in the same range of Ki: 10 to 1000 nM for the first, 10 to 1000 nM for the second.

`CC1CN(c2ccncc2NC(=O)c2c(N)nn3cc(Cl)cnc23)CCN1C` (stereo not shown) [I-N-54, 2-amino-6-chloro-N-(4-(3,4-dimethylpiperazin-1-yl)pyridin-3-yl)pyrazolo[1,5-a]pyrimidine-3-carboxamide] and `CN(C)C1CN(C2CCN(c3ccncc3NC(=O)c3c(N)nn4cc(Cl)cnc34)CC2)C1` [I-N-94, 2-amino-6-chloro-N-(4-(4-(3-(dimethylamino)azetidin-1-yl)piperidin-1-yl)pyridin-3-yl)pyrazolo[1,5-a]pyrimidine-3-carboxamide] fall in the same range of Ki: 10 to 1000 nM for the first, 10 to 1000 nM for the second.

`CN1CCN(c2ccncc2NC(=O)c2c(N)nn3cc(F)cnc23)CC12CCOCC2` [I-N-133, 2-amino-6-fluoro-N-(4-(1-methyl-9-oxa-1,4-diazaspiro[5.5]undecan-4-yl)pyridin-3-yl)pyrazolo[1,5-a]pyrimidine-3-carboxamide] and `Nc1nn2cc(F)cnc2c1C(=O)Nc1cnccc1N1CCC(CN2CCC(F)(F)C2)CC1` [I-N-197, 2-amino-N-(4-(4-((3,3-difluoropyrrolidin-1-yl)methyl)piperidin-1-yl)pyridin-3-yl)-6-fluoropyrazolo[1,5-a]pyrimidine-3-carboxamide] fall in the same range of Ki: 10 to 1000 nM for the first, 10 to 1000 nM for the second.

`N#CC1(C(=O)N2CCC(c3ccncc3NC(=O)c3c(N)nn4cc(F)cnc34)CC2)CC1` [I-C-71, 2-amino-N-(4-(1-(1-cyanocyclopropanecarbonyl)piperidin-4-yl)pyridin-3-yl)-6-fluoropyrazolo[1,5-a]pyrimidine-3-carboxamide] and `Nc1nn2cc(F)cnc2c1C(=O)Nc1cnccc1C1CCN(C2COC2)CC1` [I-C-10, 2-amino-6-fluoro-N-(4-(1-(oxetan-3-yl)piperidin-4-yl)pyridin-3-yl)pyrazolo[1,5-a]pyrimidine-3-carboxamide] fall in the same range of Ki: 10 to 1000 nM for the first, 10 to 1000 nM for the second.

`Nc1nn2cc(F)cnc2c1C(=O)Nc1cnccc1N1CCC(N2CCCC2=O)CC1` [I-N-230, 2-amino-6-fluoro-N-(4-(4-(2-oxopyrrolidin-1-yl)piperidin-1-yl)pyridin-3-yl)pyrazolo[1,5-a]pyrimidine-3-carboxamide] and `Nc1nn2cc(F)cnc2c1C(=O)Nc1cncc(F)c1N1CCN2C(=O)CCC[C@H]2C1` [I-N-279, (S)-2-amino-6-fluoro-N-(5-fluoro-4-(6-oxohexahydro-1H-pyrido[1,2-a]pyrazin-2(6H)-yl)pyridin-3-yl)pyrazolo[1,5-a]pyrimidine-3-carboxamide] fall in the same range of Ki: 10 to 1000 nM for the first, 10 to 1000 nM for the second.
